The values that follow come from patent US20050234046A1 (Kalypsys, Inc., priority 2004, published 2005).

Holding throughout (assay): Transient transfection (transactivation) assay in CV-1 cells, GAL4-PPAR chimera, luciferase reporter
Common to all, as to type: cell-based
On the technique in general: A reporter such as luciferase makes a cellular process visible.

In one assay the target is T1, PPAR alpha (Homo sapiens, UniProt Q07869).
T1 construct: expressed in transfected cells; host or cells: CV-1 cells
T1 sequence (Q07869 239-466 limits assumed): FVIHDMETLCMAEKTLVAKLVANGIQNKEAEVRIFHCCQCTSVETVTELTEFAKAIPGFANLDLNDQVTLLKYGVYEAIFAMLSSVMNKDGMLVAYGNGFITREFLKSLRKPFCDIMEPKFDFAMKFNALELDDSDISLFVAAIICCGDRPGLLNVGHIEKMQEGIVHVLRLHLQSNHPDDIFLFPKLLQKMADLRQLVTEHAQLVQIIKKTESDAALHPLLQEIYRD
An excerpt: Compounds may be screened for functional potency in transient transfection assays in CV-1 cells or other cell types for their ability to activate the PPAR subtypes (transactivation assay). A previously established chimeric receptor system was utilized to allow comparison of the relative transcriptional activity of the receptor subtypes on the same synthetic response element and to prevent endogenous receptor activation from complicating the interpretation of results. See, for example; Lehmann, J. M.; Moore, L. B.; Smith-Oliver, T. A; Wilkinson, W. O.; Willson, T. M.; Kliewer, S. A., An antidiabetic thiazolidinedione is a high affinity ligand for peroxisome proliferatur-activated receptor γ (PPARγ), J. Biol. Chem., 1995, 270, 12953-6. The ligand binding domains for murine and human PPAR-alpha, PPAR-gamma, and PPAR-delta are each fused to the yeast transcription factor GAL4 DNA binding domain. CV-1 cells were transiently transfected with expression vectors for the respective PPAR chimera along with a reporter construct containing four or five copies of the GAL4 DNA binding site driving expression of luciferase. After 8-16 h, the cells are replated into multi-well assay plates and the media is exchanged to phenol-red free DME medium supplemented with 5% delipidated calf serum. 4 hours after replating, cells were treated with either compounds or 1% DMSO for 20-24 hours. Luciferase activity was then assayed with Britelite (Perkin Elmer) following the manufacturer's protocol and measured with either the Perkin Elmer Viewlux or Molecular Devices Acquest Xsee, for example, Kliewer, S. A., et. al. Cell 1995, 83, 813-819). Rosiglitazone is used as a positive control in the hPPAR-γ assay. Wy-14643 and GW7647 is used as a positive control in the hPPAR-α assay. GW501516 is used as the positive control in the hPPAR-δ assay.
Compounds of Examples 1-233 were assayed to measure their biological activity with respect to their EC50 values and efficacy for modulating PPAR-alpha, PPAR-gamma, and PPAR-delta as set forth in Table 3.

The target of another assay is T2, PPAR delta (Homo sapiens, UniProt Q03181).
T2 construct: expressed in transfected cells; host or cells: CV-1 cells
T2 sequence (Q03181 211-439 limits assumed): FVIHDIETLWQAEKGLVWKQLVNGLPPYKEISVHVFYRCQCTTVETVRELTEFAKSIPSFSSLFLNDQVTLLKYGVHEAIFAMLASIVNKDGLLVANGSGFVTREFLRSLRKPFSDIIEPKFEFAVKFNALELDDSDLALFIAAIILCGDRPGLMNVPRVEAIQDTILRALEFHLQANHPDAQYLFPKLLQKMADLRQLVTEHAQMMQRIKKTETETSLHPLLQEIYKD

For another assay, the target named is T3, PPAR gamma (Homo sapiens, UniProt P37231).
T3 construct: expressed in transfected cells; host or cells: CV-1 cells
T3 sequence (P37231 238-503 limits assumed): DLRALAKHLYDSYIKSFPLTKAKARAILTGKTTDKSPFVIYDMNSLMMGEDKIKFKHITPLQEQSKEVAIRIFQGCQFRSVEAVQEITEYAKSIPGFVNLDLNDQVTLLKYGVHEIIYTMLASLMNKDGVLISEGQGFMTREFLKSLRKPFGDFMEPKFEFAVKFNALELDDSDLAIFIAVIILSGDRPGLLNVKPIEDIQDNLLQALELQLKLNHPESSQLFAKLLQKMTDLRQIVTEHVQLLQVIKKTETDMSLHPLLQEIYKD

One may read the EC50 as the concentration at which the effect is half-maximal. Higher therefore signals weaker potency. In the case of `Cc1ccc(S(=O)(=O)N2C[C@H](C)N(c3ccc(C(F)(F)F)cn3)C[C@H]2C)cc1CC(=O)O` (mixture of isomers) [Example 21, SR and RS-{5-[2,5-Dimethyl-4-(5-trifluoromethyl-pyridin-2-yl)-piperazine-1-sulfonyl]-2-methyl-phenyl}-acetic acid], the EC50 on PPAR alpha is more than 100 µM; at PPAR delta, less than 5 µM; at PPAR gamma, 5 to 100 µM.

With `Cc1ccc(S(=O)(=O)N2CCN(c3ccc(C(F)(F)F)cn3)[C@@H](C)[C@H]2C)cc1CC(=O)O` (mixture of isomers) [Example 104, RS and SR-{5-[2,3-Dimethyl-4-(5-trifluoromethyl-pyridin-2-yl)-piperazine-1-sulfonyl]-2-methyl-phenyl}-acetic acid], the figures for the EC50 on PPAR alpha, at PPAR delta and at PPAR gamma were 5 to 100 µM, less than 5 µM and less than 5 µM, respectively.

For the molecule `Cc1cc(CC(=O)O)cc(S(=O)(=O)N2CCN(c3ccc(C(F)(F)F)cn3)[C@@H](C)[C@H]2C)c1` (mixture of isomers) [Example 106, RS and SR-{3-[2,3-Dimethyl-4-(5-trifluoromethyl-pyridin-2-yl)-piperazine-1-sulfonyl]-5-methyl-phenyl}-acetic acid], the figures for the EC50 on PPAR alpha, at PPAR delta and at PPAR gamma were more than 100 µM, less than 5 µM and more than 100 µM, respectively.

With `C[C@@H]1[C@H](C)N(c2ccc(C(F)(F)F)cn2)CCN1S(=O)(=O)c1cccc(CC(=O)O)c1` (racemic) [Example 105, RS and SR-{3-[2,3-Dimethyl-4-(S-trifluoromethyl-pyridin-2-yl)-piperazine-1-sulfonyl]-phenyl}-acetic acid], the EC50 is more than 100 µM at PPAR alpha, less than 5 µM at PPAR delta and less than 5 µM on PPAR gamma.

Turning to `Cc1ccc(S(=O)(=O)N2CCN(c3ccc(C(F)(F)F)cn3)[C@H](C)C2)cc1CC(=O)O` (single isomer, unassigned) [Example 69], the EC50 at PPAR alpha was 5 to 100 µM; on PPAR delta, less than 5 µM; on PPAR gamma, less than 5 µM.

As to `Cc1ccc(CC(=O)O)cc1S(=O)(=O)N1CCC(c2ccc(Cl)cc2)CC1` [Example 1], the concentration for a half-maximal effect (EC50) on PPAR alpha was more than 100 µM; at PPAR delta, less than 5 µM; at PPAR gamma, more than 100 µM.

On to `Cc1ccc(S(=O)(=O)N2CCC(c3ccc(Cl)cc3)CC2)cc1CC(=O)O` [Example 2, {5-[4-(4-Chlorophenyl)-piperidine-1-sulfonyl]-2-methyl-phenyl}-acetic acid], for which the EC50 on PPAR alpha is more than 100 µM; on PPAR delta it was 5 to 100 µM; on PPAR gamma, more than 100 µM.

Turning to `O=C(O)Cc1cccc(S(=O)(=O)N2CCN(c3ccc(C(F)(F)F)cc3)CC2)c1` [Example 3, {3-[4-(4-Trifluoromethyl-phenyl)-piperazine-1-sulfonyl]-phenyl}-acetic acid], the EC50 on PPAR alpha is 5 to 100 µM; on PPAR delta it was less than 5 µM; on PPAR gamma, 5 to 100 µM.

Turning to `O=C(O)Cc1cccc(S(=O)(=O)N2CCN(c3ccc(C(F)(F)F)cn3)CC2)c1` [Example 4, {3-[4-(5-Trifluoromethyl-pyridin-2-yl)-piperazine-1-sulfonyl]-phenyl}-acetic acid], the EC50 is 5 to 100 µM on PPAR alpha, less than 5 µM on PPAR delta and 5 to 100 µM on PPAR gamma.

For `Cc1ccc(S(=O)(=O)N2CCCN(c3ccc(C(F)(F)F)cc3)CC2)cc1CC(=O)O` [Example 5, {2-Methyl-5-[4-(4-trifluoromethyl-phenyl)-[1,4]diazepane-1-sulfonyl]-phenyl}-acetic acid], the EC50 on PPAR alpha was more than 100 µM; on PPAR delta, less than 5 µM; at PPAR gamma it was 5 to 100 µM.

Regarding `Cc1ccc(S(=O)(=O)N2CCN(c3ccc(C(F)(F)F)cn3)CC2C(C)C)cc1CC(=O)O` (stereo not drawn) [Example 6, {5-[2-Isopropyl-4-(5-trifluoromethyl-pyridin-2-yl)-piperazine-1-sulfonyl]-2-methyl-phenyl}-acetic acid], the EC50 at PPAR alpha was 5 to 100 µM; on PPAR delta it was less than 5 µM; at PPAR gamma, 5 to 100 µM.

For the molecule `CCC1CN(c2ccc(C(F)(F)F)cn2)CCN1S(=O)(=O)c1ccc(C)c(CC(=O)O)c1` (stereo not drawn) [Example 7, {5-[2-Ethyl-4-(5-trifluoromethyl-pyridin-2-yl)-piperazine-1-sulfonyl]-2-methyl-phenyl)-acetic acid], the values for the half-maximal effective concentration (EC50) at PPAR alpha, at PPAR delta and on PPAR gamma were 5 to 100 µM, less than 5 µM and 5 to 100 µM, respectively.

For `Cc1ccc(S(=O)(=O)N2CCCN(c3ccc(C(F)(F)F)cn3)CC2)cc1CC(=O)O` [Example 8, {2-Methyl-5-[4-(5-trifluoromethyl-pyridin-2-yl)-[1,4]diazepane-1-sulfonyl]-phenyl}-acetic acid], the EC50 at PPAR alpha was 5 to 100 µM; at PPAR delta it was less than 5 µM; on PPAR gamma, less than 5 µM.

In the case of `Cc1ccc(S(=O)(=O)N2CCCN(c3ncc(C(F)(F)F)cc3Cl)CC2)cc1CC(=O)O` [Example 9], the EC50 at PPAR alpha, at PPAR delta and at PPAR gamma was less than 5 µM each time.

As for `Cc1ccc(S(=O)(=O)N2C[C@@H]3C[C@H]2CN3c2cccc(F)c2)cc1CC(=O)O` [Example 10, S,S-{5-[4-(3-Fluorophenyl)-2,5-diaza-bicyclo[2.2.1]heptane-1-sulfonyl]-2-methyl-phenyl}acetic acid], the half-maximal effective concentration (EC50) at PPAR alpha is more than 100 µM; on PPAR delta, 5 to 100 µM; at PPAR gamma it was more than 100 µM.

Consider `Cc1ccc(S(=O)(=O)N2C[C@@H]3C[C@H]2CN3c2ccc(F)cc2)cc1CC(=O)O` [Example 11], for which the 50% effective concentration (EC50) at PPAR alpha was more than 100 µM; on PPAR delta it was 5 to 100 µM; on PPAR gamma, more than 100 µM.

As for `Cc1ccc(S(=O)(=O)N2CCCN(c3ncccc3C(F)(F)F)CC2)cc1CC(=O)O` [Example 12, {2-Methyl-5-[4-(3-trifluoromethyl-pyridin-2-yl)-[1,4]diazepane-1-sulfonyl]-phenyl}-acetic acid], the values for the EC50 at PPAR alpha, at PPAR delta and on PPAR gamma were more than 100 µM, 5 to 100 µM and 5 to 100 µM, respectively.

`Cc1ccc(S(=O)(=O)N2CCCN(c3ccncc3)CC2)cc1CC(=O)O` [Example 13]: the EC50 is more than 100 µM at PPAR alpha, 5 to 100 µM on PPAR delta and more than 100 µM on PPAR gamma.

For `Cc1ccc(S(=O)(=O)N2CCCC(c3ccc(C(F)(F)F)cc3)C2)cc1CC(=O)O` (stereo not drawn) [Example 15, {2-Methyl-5-[3-(4-trifluoromethyl-phenyl)-piperidine-1-sulfonyl]-phenyl}-acetic acid], the results for the EC50 at PPAR alpha, on PPAR delta and on PPAR gamma were 5 to 100 µM, less than 5 µM and 5 to 100 µM, respectively.

As for `Cc1ccc(S(=O)(=O)N2CCCC(c3cccc(C(F)(F)F)c3)C2)cc1CC(=O)O` (stereo not drawn) [Example 16, {2-Methyl-5-[3-(3-trifluoromethyl-phenyl)-piperidine-1-sulfonyl]-phenyl}-acetic acid], the EC50 is more than 100 µM on PPAR alpha, 5 to 100 µM on PPAR delta and less than 5 µM on PPAR gamma.

As for `Cc1ccc(S(=O)(=O)N2CCN(c3nc4ccccc4o3)CC2)cc1CC(=O)O` [Example 17, [5-(4-Benzoxazol-2-yl-piperazine-1-sulfonyl)-2-methyl-phenyl]-acetic acid], the EC50 is 5 to 100 µM on PPAR alpha, less than 5 µM on PPAR delta and 5 to 100 µM on PPAR gamma.

Take `Cc1ccc(S(=O)(=O)N2CCN(c3nc4ccccc4s3)CC2)cc1CC(=O)O` [Example 18, [5-(4-Benzothiazol-2-yl-piperazine-1-sulfonyl)-2-methyl-phenyl]-acetic acid]: the EC50 on PPAR alpha, at PPAR delta and on PPAR gamma was less than 5 µM each time.

For the molecule `Cc1ccc(S(=O)(=O)N2CCN(c3ccc(C(F)(F)F)cn3)CC2C)cc1CC(=O)O` (stereo not drawn) [Example 19], the EC50 at PPAR alpha is 5 to 100 µM; at PPAR delta it was less than 5 µM; at PPAR gamma, 5 to 100 µM.
